# ChEMBL document CHEMBL4004838, “Design and synthesis of novel phenyl -1, 4-beta-carboline-hybrid molecules as potential anticancer agents” (Eur J Med Chem, 2017)
# Experiments:
# Format in all cases: functional
# IGROV-1 = assay: Growth inhibition of human IGROV1 cells incubated for 48 hrs by sulforhodamine B assay; settings: IGROV-1, 48 h
# SK-OV-3 = assay: Growth inhibition of human SKOV3 cells assessed as cell growth at 0.1 uM incubated for 48 hrs by sulforhodamine B assay relative to control; settings: SK-OV-3, 48 h, read-out: Activity
# SNB-19 [1] = assay: Growth inhibition of human SNB19 cells assessed as cell growth at 1 uM incubated for 48 hrs by sulforhodamine B assay relative to control; settings: SNB-19, 48 h, read-out: Activity
# UO-31 [2] = assay: Growth inhibition of human UO31 cells assessed as cell growth at 100 uM incubated for 48 hrs by sulforhodamine B assay relative to control; settings: UO-31, 48 h, read-out: Activity
# MDA-MB-435 = assay: Growth inhibition of human MDA-MB-435 cells incubated for 48 hrs by sulforhodamine B assay; settings: MDA-MB-435, 48 h
# UACC-257 [3] = assay: Growth inhibition of human UACC257 cells assessed as cell growth at 0.01 uM incubated for 48 hrs by sulforhodamine B assay relative to control; settings: UACC-257, 48 h, read-out: Activity
# SNB-75 = assay: Growth inhibition of human SNB75 cells assessed as cell growth at 0.01 uM incubated for 48 hrs by sulforhodamine B assay relative to control; settings: SNB-75, 48 h, read-out: Activity
# OVCAR-4 = assay: Growth inhibition of human OVCAR4 cells assessed as cell growth at 0.01 uM incubated for 48 hrs by sulforhodamine B assay relative to control; settings: OVCAR-4, 48 h, read-out: Activity
# HOP-92 [4] = assay: Growth inhibition of human HOP92 cells incubated for 48 hrs by sulforhodamine B assay; settings: HOP-92, 48 h
# SF-295 = assay: Growth inhibition of human SF295 cells incubated for 48 hrs by sulforhodamine B assay; settings: SF-295, 48 h
# EKVX = assay: Growth inhibition of human EKVX cells assessed as cell growth at 0.01 uM incubated for 48 hrs by sulforhodamine B assay relative to control; settings: read-out: Activity
# Hs-578T [5] = assay: Growth inhibition of human Hs 578T cells assessed as cell growth at 0.1 uM incubated for 48 hrs by sulforhodamine B assay relative to control; settings: read-out: Activity
# HCT-116 = assay: Growth inhibition of human HCT116 cells incubated for 48 hrs by sulforhodamine B assay; settings: HCT-116, 48 h
# A549 = assay: Growth inhibition of human A549/ATCC cells incubated for 48 hrs by sulforhodamine B assay; settings: A549, 48 h
# LOX IMVI = assay: Growth inhibition of human LOXIMVI cells incubated for 48 hrs by sulforhodamine B assay
# UO-31 [6] = assay: Growth inhibition of human UO31 cells assessed as cell growth at 0.01 uM incubated for 48 hrs by sulforhodamine B assay relative to control; settings: UO-31, 48 h, read-out: Activity
# HOP-92 [7] = assay: Growth inhibition of human HOP92 cells assessed as cell growth at 100 uM incubated for 48 hrs by sulforhodamine B assay relative to control; settings: HOP-92, 48 h, read-out: Activity
# NCI-H226 = assay: Growth inhibition of human NCI-H226 cells assessed as cell growth at 100 uM incubated for 48 hrs by sulforhodamine B assay relative to control; settings: NCI-H226, 48 h, read-out: Activity
# UACC-257 [8] = assay: Growth inhibition of human UACC257 cells assessed as cell growth at 100 uM incubated for 48 hrs by sulforhodamine B assay relative to control; settings: UACC-257, 48 h, read-out: Activity
# SNB-19 [9] = assay: Growth inhibition of human SNB19 cells assessed as cell growth at 0.01 uM incubated for 48 hrs by sulforhodamine B assay relative to control; settings: SNB-19, 48 h, read-out: Activity
# TK-10 = assay: Growth inhibition of human TK10 cells assessed as cell growth at 100 uM incubated for 48 hrs by sulforhodamine B assay relative to control; settings: TK-10, 48 h, read-out: Activity
# MDA-MB-468 = assay: Growth inhibition of human MDA-MB-468 cells assessed as cell growth at 0.1 uM incubated for 48 hrs by sulforhodamine B assay relative to control; settings: MDA-MB-468, 48 h, read-out: Activity
# MOLT-4 = assay: Growth inhibition of human MOLT4 cells assessed as cell growth at 1 uM incubated for 48 hrs by sulforhodamine B assay relative to control; settings: MOLT-4, 48 h, read-out: Activity
# NCI/ADR-RES = assay: Growth inhibition of human NCI-ADR-RES cells assessed as cell growth at 100 uM incubated for 48 hrs by sulforhodamine B assay relative to control; settings: read-out: Activity
# UACC-62 = assay: Growth inhibition of human UACC62 cells assessed as cell growth at 0.01 uM incubated for 48 hrs by sulforhodamine B assay relative to control; settings: UACC-62, 48 h, read-out: Activity
# Hs-578T [10] = assay: Growth inhibition of human Hs 578T cells assessed as cell growth at 0.01 uM incubated for 48 hrs by sulforhodamine B assay relative to control; settings: read-out: Activity
# SK-MEL-5 = assay: Growth inhibition of human SK-MEL-5 cells assessed as cell growth at 0.01 uM incubated for 48 hrs by sulforhodamine B assay relative to control; settings: SK-MEL-5, 48 h, read-out: Activity
# DU-145 = assay: Growth inhibition of human DU145 cells assessed as cell growth at 0.1 uM incubated for 48 hrs by sulforhodamine B assay relative to control; settings: DU-145, 48 h, read-out: Activity
# SW-620 = assay: Growth inhibition of human SW620 cells assessed as cell growth at 0.1 uM incubated for 48 hrs by sulforhodamine B assay relative to control; settings: SW-620, 48 h, read-out: Activity
# KM12 = assay: Growth inhibition of human KM12 cells assessed as cell growth at 0.1 uM incubated for 48 hrs by sulforhodamine B assay relative to control; settings: KM12, 48 h, read-out: Activity
# [11] = read-out: LC50 (the source's name)
# [12] = read-out: pLC50 (the source's name) (converted)
smiles,measurement,setting,value
c1ccc2c3c([nH]c2c1)C(c1ccc(C2NCCc4c2[nH]c2ccccc42)cc1)NCC3 (racemic),GI50,IGROV-1; read-out: GI50,1.34 µM
same,CC50,IGROV-1; [11],5.99 µM
same,TGI,IGROV-1; read-out: TGI,2.85 µM
same,GI50,IGROV-1; read-out: pGI50 (converted),1.35 µM
same,CC50,IGROV-1; [12],6.03 µM
same,TGI,IGROV-1; read-out: pTGI (converted),2.82 µM
same,growth at 0.1 µM,SK-OV-3,95%
same,growth at 1 µM,SNB-19 [1],88%
same,growth at 100 µM,UO-31 [2],-96%
same,CC50,MDA-MB-435; [11],3.75 µM
same,GI50,MDA-MB-435; read-out: pGI50 (converted),0.363 µM
same,CC50,MDA-MB-435; [12],3.72 µM
same,TGI,MDA-MB-435; read-out: pTGI (converted),1.26 µM
same,growth at 0.01 µM,UACC-257 [3],101%
same,growth at 0.01 µM,SNB-75,78%
same,growth at 0.01 µM,OVCAR-4,88%
same,CC50,HOP-92 [4]; [11],9.59 µM
same,GI50,HOP-92 [4]; read-out: pGI50 (converted),0.724 µM
same,CC50,HOP-92 [4]; [12],9.55 µM
same,TGI,HOP-92 [4]; read-out: pTGI (converted),2.88 µM
same,GI50,SF-295; read-out: GI50,1.62 µM
same,TGI,SF-295; read-out: TGI,3.33 µM
same,GI50,SF-295; read-out: pGI50 (converted),1.62 µM
same,TGI,SF-295; read-out: pTGI (converted),3.31 µM
same,growth at 0.01 µM,EKVX,88%
same,growth at 0.1 µM,Hs-578T [5],90%
same,GI50,HCT-116; read-out: GI50,1.7 µM
same,CC50,HCT-116; [11],6.59 µM
same,TGI,HCT-116; read-out: TGI,3.35 µM
same,GI50,HCT-116; read-out: pGI50 (converted),0.17 µM
same,CC50,HCT-116; [12],0.661 µM
same,GI50,A549; read-out: GI50,1.1 µM
same,TGI,A549; read-out: TGI,2.54 µM
same,GI50,A549; read-out: pGI50 (converted),1.1 µM
same,TGI,A549; read-out: pTGI (converted),2.51 µM
same,GI50,LOX IMVI; read-out: GI50,1.96 µM
same,CC50,LOX IMVI; [11],1.1 µM
same,TGI,LOX IMVI; read-out: TGI,4.5 µM
same,GI50,LOX IMVI; read-out: pGI50 (converted),0.195 µM
same,CC50,LOX IMVI; [12],1.1 µM
same,TGI,LOX IMVI; read-out: pTGI (converted),4.47 µM
same,growth at 0.01 µM,UO-31 [6],89%
same,growth at 100 µM,HOP-92 [7],90%
same,growth at 100 µM,NCI-H226,60%
same,growth at 100 µM,UACC-257 [8],94%
same,growth at 0.01 µM,SNB-19 [9],97%
same,growth at 100 µM,TK-10,-96%
same,growth at 0.1 µM,MDA-MB-468,100%
same,growth at 1 µM,MOLT-4,13%
same,growth at 100 µM,NCI/ADR-RES,-30%
same,growth at 0.01 µM,UACC-62,96%
same,growth at 0.01 µM,Hs-578T [10],93%
same,growth at 0.01 µM,SK-MEL-5,99%
same,growth at 0.1 µM,DU-145,100%
same,growth at 0.1 µM,SW-620,100%
same,growth at 0.1 µM,KM12,95%
c1ccc2[nH]c(-c3ccc(-c4nccc5c4[nH]c4ccccc45)cc3)nc2c1,GI50,IGROV-1; read-out: GI50,4.73 µM
same,CC50,IGROV-1; [11],> 1 µM
same,GI50,IGROV-1; read-out: pGI50 (converted),4.68 µM
same,CC50,IGROV-1; [12],> 100 µM
same,TGI,IGROV-1; read-out: pTGI (converted),22.4 µM
same,growth at 0.1 µM,SK-OV-3,98%
same,growth at 1 µM,SNB-19 [1],88%
same,growth at 100 µM,UO-31 [2],82%
same,GI50,MDA-MB-435; read-out: GI50,1.92 µM
same,CC50,MDA-MB-435; [11],9.51 µM
same,TGI,MDA-MB-435; read-out: TGI,4.27 µM
same,GI50,MDA-MB-435; read-out: pGI50 (converted),1.91 µM
same,CC50,MDA-MB-435; [12],9.55 µM
same,TGI,MDA-MB-435; read-out: pTGI (converted),4.27 µM
same,growth at 0.01 µM,UACC-257 [3],93%
same,growth at 0.01 µM,SNB-75,81%
same,growth at 0.01 µM,OVCAR-4,90%
same,GI50,HOP-92 [4]; read-out: GI50,2.06 µM
same,CC50,HOP-92 [4]; [11],2.98 µM
same,TGI,HOP-92 [4]; read-out: TGI,5.79 µM
same,GI50,HOP-92 [4]; read-out: pGI50 (converted),2.04 µM
same,CC50,HOP-92 [4]; [12],29.5 µM
same,TGI,HOP-92 [4]; read-out: pTGI (converted),5.75 µM
same,GI50,SF-295; read-out: GI50,1.92 µM
same,LC50,SF-295; read-out: LC50,8.34 µM
same,TGI,SF-295; read-out: TGI,4 µM
same,GI50,SF-295; read-out: pGI50 (converted),1.91 µM
same,LC50,SF-295; read-out: pLC50 (converted),8.32 µM
same,TGI,SF-295; read-out: pTGI (converted),3.98 µM
same,growth at 0.01 µM,EKVX,94%
same,growth at 0.1 µM,Hs-578T [5],100%
same,CC50,HCT-116; [11],4.43 µM
same,GI50,HCT-116; read-out: pGI50 (converted),2.82 µM
same,CC50,HCT-116; [12],44.7 µM
same,TGI,HCT-116; read-out: pTGI (converted),10.5 µM
same,GI50,A549; read-out: GI50,4.15 µM
same,LC50 (concentration killing 50% of starting cells),A549; read-out: LC50,7.98 µM
same,GI50,A549; read-out: pGI50 (converted),4.17 µM
same,LC50 (concentration killing 50% of starting cells),A549; read-out: pLC50 (converted),79.4 µM
same,TGI,A549; read-out: pTGI (converted),18.6 µM
same,GI50,LOX IMVI; read-out: GI50,1.67 µM
same,TGI,LOX IMVI; read-out: TGI,3.82 µM
same,GI50,LOX IMVI; read-out: pGI50 (converted),1.66 µM
same,TGI,LOX IMVI; read-out: pTGI (converted),3.8 µM
same,growth at 0.01 µM,UO-31 [6],89%
same,growth at 100 µM,HOP-92 [7],76%
same,growth at 100 µM,NCI-H226,50%
same,growth at 100 µM,UACC-257 [8],81%
same,growth at 0.01 µM,SNB-19 [9],91%
same,growth at 100 µM,TK-10,85%
same,growth at 0.1 µM,MDA-MB-468,99%
same,growth at 1 µM,MOLT-4,93%
same,growth at 100 µM,NCI/ADR-RES,45%
same,growth at 0.01 µM,UACC-62,89%
same,growth at 0.01 µM,Hs-578T [10],99%
same,growth at 0.01 µM,SK-MEL-5,94%
same,growth at 0.1 µM,DU-145,96%
same,growth at 0.1 µM,SW-620,103%
same,growth at 0.1 µM,KM12,96%
